Reference: patent publication US10799505B2, “Crystalline form of (S)-N-(5-((R)-2-(2,5-difluorophenyl)-pyrrolidin-1-yl)-pyrazolo[1,5-A]pyrimidin-3-yl)-3-hydroxypyrrolidine-1-carboxamide hydrogen sulfate” (Array BioPharma, Inc., priority 2014, dated 2020)

Columns and labels:
Assay type in all cases: physicochemical
[1] = Dynamic vapor sorption / humidity exposure (IGAsorp, 25° C.); settings: at 80% RH, hydrogen sulfate
Experimental: • 1. The hygroscopicity was studied at 25° C. using an IGAsorp analyzer. • 2. About 15 mg of sample was placed in a tared mesh sample holder at an initial ambient room humidity setting of ˜35%. • 3. A total wet/dry nitrogen flow rate of 250 cc/min is used throughout the study. • 4. […] The maximum time allowed at any one humidity set point was 120 min. The sample was maintained under dry N2 after the cycle was completed. Percent weight gain was calculated based on the dry weight basis.

[2] = Accelerated stability, open vials in LDPE bag, 40° C./75% RH, five weeks
Experimental: Upon removal from the chamber, the samples were physically characterized by appearance, KF, TGA, DSC, XRD and PLM. The samples were also analyzed by HPLC for chromatographic purity, chiral integrity and potency. Where applicable, the data presented in the stability portion also includes the original T=0 data for comparison purposes. The data can be seen in Tables 25-29 and FIGS. 40-44.

[3] = Dynamic vapor sorption (DVS-1 system); settings: for DVS (outcome): HCl: at 50-60% RH
Experimental: For the DVS measurement a sample of crystalline form (I-HS) was cycled through changing humidity conditions to determine its hygroscopicity. The sample was analyzed using a Surface Measurement System DVS-1 Dynamic Vapor Sorption System. […] Data was collected in 1 minute intervals. Nitrogen was used as the carrier gas. […] After completion of the sorption cycle, the sample was dried using the same procedure, but all the way down to 0% RH and finally taken back to the starting point of 20% RH. The weight change during the sorption/desorption cycles were plotted, allowing for the hygroscopic nature of the sample to be determined.

[4] = Stability on aluminum slide at 40° Celsius/75% RH; settings: I-HS 10 days; HCl after 1 hour; HBr after 2 weeks; mesylate overnight
[5] = Angle of repose; settings: for Angle of Repose θ: one side of the pile; for Angle of Repose φ: other side of the pile
Experimental: The angle of repose is the angle formed by the horizontal base of the surface and the edge of a cone-like pile of granules. It is calculated from the following equation: […]
The angle of repose was measured by slowly pouring approximately 1 g of sample through a funnel with a 3/16″ inner diameter of the outlet. The powder then fell 1 11/16″ to land on the surface of an overturned crystallization dish on which a pile of powder formed. A picture was taken of the pile after addition of all of the material. The angle between the dish surface and the surface of the pile was measure via a protractor on the pictures. Care was taken to replicate the same positions and fall distances in the set up between different samples.

[6] = Bulk and tap densities, Carr's Index, Hausner Ratio
Experimental: The powder was added to a pre-weighed 10 mL graduated cylinder through a funnel that was not in direct contact with the graduated cylinder to avoid transference of vibrations. Powder was added until a 10 mL volume was reached and then the graduated cylinder with powder was weighed. The bulk density was calculated by
[formula] The same sample in the graduated cylinder was tapped for the following sequence: 100, 150, 250, 250 taps. The volume was measured after each interval. The tapped density was calculated by
The Carr's Index was calculated according to the following equation: […]
The Hausner Ratio was calculated with the following equation: […]

## O=C(Nc1cnn2ccc(N3CCC[C@@H]3c3cc(F)ccc3F)nc12)N1CC[C@H](O)C1.O=S(=O)(O)O [AM(HS)1, (S)—N-(5-((R)-2-(2,5-difluorophenyl)-pyrrolidin-1-yl)-pyrazolo[1,5-a]pyrimidin-3-yl)-3-hydroxypyrrolidine-1-carboxamide hydrogen sulfate]
[1]
  mass gained in DVS: greater than 13%
[2]; 40° C./75% RH, 5 wks
  Appearance: Orange Powder
  Assay (HPLC): 80.3%
  Chiral Potency (HPLC): 99.6%
  KF (water content): 0.56 w/w %
  Peak Area Percent, RRT 0.793: 0.00
  Peak Area Percent, RRT 0.863: 1.04
  Peak Area Percent, RRT 0.981: 0.12
  Peak Area Percent, RRT 1.000: 98.83
  Peak Area Percent, RRT 1.535: 0.00
  Total Impurities (HPLC): 1.16%
[2]; 40° C./75% RH, five weeks
  change of API chemical purity: did not change significantly
[2]; time point 0 wks
  Appearance: Yellow Powder
  Assay (HPLC): 79.5%
  Chiral Potency (HPLC): 99.6%
  KF (water content): 2.00 w/w %
  Peak Area Percent, RRT 0.793: 0.00
  Peak Area Percent, RRT 0.863: 0.98
  Peak Area Percent, RRT 0.981: 0.12
  Peak Area Percent, RRT 1.000: 98.89
  Peak Area Percent, RRT 1.535: 0.00
  Total Impurities (HPLC): 1.10%

## CS(=O)(=O)O.O=C(Nc1cnn2ccc(N3CCC[C@@H]3c3cc(F)ccc3F)nc12)N1CC[C@H](O)C1 [Mesylate, (S)—N-(5-((R)-2-(2,5-difluorophenyl)pyrrolidin-1-yl)pyrazolo[1,5-a]pyrimidin-3-yl)-3-hydroxypyrrolidine-1-carboxamide methanesulfonate]
[3]
  DVS (outcome): (crystalline)
[3]; at 80% RH
  DVS weight gain: ~9% gain at 80%
[3]; at 90% RH
  DVS weight gain: ~50% gain at 90%
[4]
  Stability at 40° Celsius/75% RH (aluminum slide): Deliquesced

## O=C(Nc1cnn2ccc(N3CCC[C@@H]3c3cc(F)ccc3F)nc12)N1CC[C@H](O)C1.O=S(=O)(O)O [AR00457470-33]
[5]
  Angle of Repose Average: 45.70 °
  Angle of Repose θ: 47.79 °
  Angle of Repose φ: 43.6 °
[6]
  Bulk Density: 423.6 mg/mL
  Tapped Density: 622.9 mg/mL

## Br.O=C(Nc1cnn2ccc(N3CCC[C@@H]3c3cc(F)ccc3F)nc12)N1CC[C@H](O)C1 [HBr, (S)—N-(5-((R)-2-(2,5-difluorophenyl)pyrrolidin-1-yl)pyrazolo[1,5-a]pyrimidin-3-yl)-3-hydroxypyrrolidine-1-carboxamide hydrobromide]
[3]
  DVS (outcome): (deliquesced)
[3]; at 80% RH
  DVS weight gain: ~3.9% gain at 80%
[3]; at 90% RH
  DVS weight gain: ~25% gain at 90%
[4]
  Stability at 40° Celsius/75% RH (aluminum slide): amorphous

## O=C(Nc1cnn2ccc(N3CCC[C@@H]3c3cc(F)ccc3F)nc12)N1CC[C@H](O)C1 [L-ARR10-118]
[5]
  Angle of Repose Average: 50.28 °
  Angle of Repose θ: 50.28 °
  Angle of Repose φ: 50.28 °
[6]
  Bulk Density: 594.8 mg/mL
  Tapped Density: 762.6 mg/mL

## Cl.O=C(Nc1cnn2ccc(N3CCC[C@@H]3c3cc(F)ccc3F)nc12)N1CC[C@H](O)C1 [HCl, (S)—N-(5-((R)-2-(2,5-difluorophenyl)pyrrolidine-1-yl)pyrazolo[1,5-a]pyrimidin-3-yl)-3-hydroxypyrrolidine-1-carboxamide hydrochloride]
[3]
  DVS (outcome): form change
[3]; at 50% RH
  DVS weight gain: ~1% gain at 50%
[4]
  Stability at 40° Celsius/75% RH (aluminum slide): form change

## O=C(Nc1cnn2ccc(N3CCC[C@@H]3c3cc(F)ccc3F)nc12)N1CC[C@H](O)C1.O=S(=O)(O)O [AM(HS)2, (S)—N-(5-((R)-2-(2,5-difluorophenyl)-pyrrolidin-1-yl)-pyrazolo[1,5-a]pyrimidin-3-yl)-3-hydroxypyrrolidine-1-carboxamide hydrogen sulfate]
[1]
  mass gained in DVS: ~12%
